Data set [1] concerns RAW264.7. As to the kind of experiment: Anti-inflammatory activity against mouse RAW264.7 cells assessed as inhibition of LPS-induced IL-1beta level at 50 to 500 nM. The settings on record: dose 50-500 nM. In kind it is functional, cell-based.
Data set [2] has as its system Mus musculus. As to the kind of experiment: Anti-inflammatory activity in C57BL/6 mouse model of LPS-induced acute lung injury assessed as decrease in number of total cells in BALF at 10 mg/kg, ip treated for 3 days followed by LPS treatment after 1 hr post-compound administration on fourth day measured after 18 hrs post-LPS treatment. It counts as functional, organism-based. To be noted: time 91.0 hrs.

Data set [3] deals with T1, Tyrosine-protein kinase JAK3 (Homo sapiens, UniProt P52333).
T1 sequence (P52333 whole entry): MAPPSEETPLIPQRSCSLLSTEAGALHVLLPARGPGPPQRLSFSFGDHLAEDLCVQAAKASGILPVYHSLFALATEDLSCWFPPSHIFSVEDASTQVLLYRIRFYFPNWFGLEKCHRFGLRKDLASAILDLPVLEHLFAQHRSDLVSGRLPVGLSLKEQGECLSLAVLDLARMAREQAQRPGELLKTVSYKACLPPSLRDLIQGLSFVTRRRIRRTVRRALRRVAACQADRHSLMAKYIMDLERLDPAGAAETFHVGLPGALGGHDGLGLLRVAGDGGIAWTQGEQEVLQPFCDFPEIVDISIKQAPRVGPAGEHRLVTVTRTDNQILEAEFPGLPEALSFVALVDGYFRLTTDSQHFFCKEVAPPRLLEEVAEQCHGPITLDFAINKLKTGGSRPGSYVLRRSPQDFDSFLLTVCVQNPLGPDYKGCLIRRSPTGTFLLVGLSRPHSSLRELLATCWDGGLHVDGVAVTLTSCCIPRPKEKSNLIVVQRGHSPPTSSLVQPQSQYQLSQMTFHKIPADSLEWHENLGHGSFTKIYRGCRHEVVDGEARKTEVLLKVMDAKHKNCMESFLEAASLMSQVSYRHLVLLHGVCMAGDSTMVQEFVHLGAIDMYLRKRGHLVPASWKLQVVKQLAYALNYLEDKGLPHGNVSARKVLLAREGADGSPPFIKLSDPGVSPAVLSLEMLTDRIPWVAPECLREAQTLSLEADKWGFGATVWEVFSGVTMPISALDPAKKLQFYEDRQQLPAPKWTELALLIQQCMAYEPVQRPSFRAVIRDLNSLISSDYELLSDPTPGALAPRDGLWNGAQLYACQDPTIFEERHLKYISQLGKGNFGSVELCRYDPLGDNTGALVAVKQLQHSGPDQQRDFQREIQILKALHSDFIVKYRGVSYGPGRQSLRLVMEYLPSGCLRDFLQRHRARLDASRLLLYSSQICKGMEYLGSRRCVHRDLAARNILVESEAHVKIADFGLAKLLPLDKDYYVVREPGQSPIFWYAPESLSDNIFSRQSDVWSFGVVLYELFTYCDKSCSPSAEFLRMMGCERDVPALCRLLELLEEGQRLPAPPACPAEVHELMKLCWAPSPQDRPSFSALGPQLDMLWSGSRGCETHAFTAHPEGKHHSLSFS
Put plainly: Inhibition of JAK3 (unknown origin) using TK-biotin as substrate incubated for 30 mins in presence of ATP by HTRF assay.

The test system of data set [4] is HBE. Put plainly: Anti-inflammatory activity against HBE cells assessed as inhibition of LPS-induced IL-8 level pretreated for 30 mins followed by LPS treatment for 24 hrs by ELISA. The settings on record: Homo sapiens, dose <= 5.0 µM, time 24.5 hrs.
The test system of data set [5] is RAW264.7. As to the kind of experiment: Anti-inflammatory activity against mouse RAW264.7 cells transfected with CTSL siRNA assessed as inhibition of LPS-induced IL-6 level by Western blot analysis. It counts as functional, cell-based.
Data set [6] is described as follows: Anti-inflammatory activity against HBE cells assessed as inhibition of LPS-induced IL-8 level at 5 uM pretreated for 30 mins followed by LPS treatment for 24 hrs by ELISA relative to control. In kind it is functional. To be noted: Homo sapiens, time 24.5 hrs.
Data set [7] has as its target Receptor-type tyrosine-protein kinase FLT3 (Homo sapiens) (UniProt P36888). Put plainly: Inhibition of FLT3 (unknown origin) at 1 uM by kinase profiling analysis relative to control.
The test system of data set [8] is RAW264.7. Put plainly: Anti-inflammatory activity against mouse RAW264.7 cells assessed as inhibition of LPS-induced IL-1beta level.
For data set [9], the system named is Mus musculus. As to the kind of experiment: Anti-inflammatory activity in C57BL/6 mouse model of LPS-induced acute lung injury assessed as decrease in disruption of endothelial cell structures in lung at 10 mg/kg, ip treated for 3 days followed by LPS treatment after 1 hr post-compound administration on fourth day measured after 18 hrs post-LPS treatment by H and E staining based analysis. It counts as functional, organism-based. To be noted: time 91.0 hrs.

Data set [10] can be described thus: AUC (0 to infinity) in Sprague-Dawley rat at 3.5 mg/kg, iv measured for 24 hrs by LC-MS/MS analysis. In kind it is ADME, organism-based. The settings on record: in vivo.
For data set [11], the system named is Mus musculus. Put plainly: Anti-inflammatory activity in C57BL/6 mouse model of LPS-induced acute lung injury assessed as decrease in alveolar hemorrhage in lung at 10 mg/kg, ip treated for 3 days followed by LPS treatment after 1 hr post-compound administration on fourth day measured after 18 hrs post-LPS treatment by H and E staining based analysis. It counts as functional, organism-based. The settings on record: time 91.0 hrs.

A short description of data set [12]: Half life in Sprague-Dawley rat at 3.5 mg/kg, iv measured for 24 hrs by LC-MS/MS analysis. It counts as ADME, organism-based. To be noted: in vivo.
Data set [13] has as its target Non-receptor tyrosine-protein kinase TYK2 (Homo sapiens, UniProt P29597). Put plainly: Inhibition of TYK2 (unknown origin) using TK-biotin as substrate incubated for 120 mins in presence of ATP by HTRF assay.
Data set [14] has as its system HBE. As to the kind of experiment: Anti-inflammatory activity against HBE cells assessed as inhibition of LPS-induced IL-6 level pretreated for 30 mins followed by LPS treatment for 24 hrs by ELISA. To be noted: Homo sapiens, dose <= 5.0 µM, time 24.5 hrs.
The nature of data set [15]: Anti-inflammatory activity against HBE cells assessed as inhibition of LPS-induced IL-6 level at 5 uM pretreated for 30 mins followed by LPS treatment for 24 hrs by ELISA relative to control. In kind it is functional. The settings on record: Homo sapiens, time 24.5 hrs.
The target in data set [16] is Tyrosine-protein kinase JAK2 (Homo sapiens, UniProt O60674). As to the kind of experiment: Inhibition of JAK2 (unknown origin) using TK-biotin as substrate incubated for 30 mins in presence of ATP by HTRF assay.
The test system of data set [17] is HBE. Put plainly: Anti-inflammatory activity against HBE cells assessed as inhibition of LPS-induced p-Ikappa-Balpha level pretreated for 30 mis followed by LPS treatment for 16 hrs by Western blot analysis. In kind it is functional, cell-based. To be noted: Homo sapiens, dose 0.5-5 µM, time 16.5 hrs.
Data set [18] has as its system RAW264.7. As to the kind of experiment: Anti-inflammatory activity against mouse RAW264.7 cells assessed as inhibition of LPS-induced IL-6 mRNA level at 50 to 500 nM by RT-qPCR analysis. It counts as functional, cell-based. To be noted: dose 50-500 nM.

Two compounds from ChEMBL document CHEMBL6087451, “Design, Synthesis, and Biological Evaluation of 2-Arylaminopyrimidine Derivatives as Dual Cathepsin L and JAK Inhibitors for the Treatment of Acute Lung Injury” (J Med Chem, 2025) can be followed below.

Each structure is given as a SMILES string. Activity calls are given as the source filed them. The rule behind the calls is not given here.

Tyrosine-protein kinase JAK2, sequence (O60674 whole entry): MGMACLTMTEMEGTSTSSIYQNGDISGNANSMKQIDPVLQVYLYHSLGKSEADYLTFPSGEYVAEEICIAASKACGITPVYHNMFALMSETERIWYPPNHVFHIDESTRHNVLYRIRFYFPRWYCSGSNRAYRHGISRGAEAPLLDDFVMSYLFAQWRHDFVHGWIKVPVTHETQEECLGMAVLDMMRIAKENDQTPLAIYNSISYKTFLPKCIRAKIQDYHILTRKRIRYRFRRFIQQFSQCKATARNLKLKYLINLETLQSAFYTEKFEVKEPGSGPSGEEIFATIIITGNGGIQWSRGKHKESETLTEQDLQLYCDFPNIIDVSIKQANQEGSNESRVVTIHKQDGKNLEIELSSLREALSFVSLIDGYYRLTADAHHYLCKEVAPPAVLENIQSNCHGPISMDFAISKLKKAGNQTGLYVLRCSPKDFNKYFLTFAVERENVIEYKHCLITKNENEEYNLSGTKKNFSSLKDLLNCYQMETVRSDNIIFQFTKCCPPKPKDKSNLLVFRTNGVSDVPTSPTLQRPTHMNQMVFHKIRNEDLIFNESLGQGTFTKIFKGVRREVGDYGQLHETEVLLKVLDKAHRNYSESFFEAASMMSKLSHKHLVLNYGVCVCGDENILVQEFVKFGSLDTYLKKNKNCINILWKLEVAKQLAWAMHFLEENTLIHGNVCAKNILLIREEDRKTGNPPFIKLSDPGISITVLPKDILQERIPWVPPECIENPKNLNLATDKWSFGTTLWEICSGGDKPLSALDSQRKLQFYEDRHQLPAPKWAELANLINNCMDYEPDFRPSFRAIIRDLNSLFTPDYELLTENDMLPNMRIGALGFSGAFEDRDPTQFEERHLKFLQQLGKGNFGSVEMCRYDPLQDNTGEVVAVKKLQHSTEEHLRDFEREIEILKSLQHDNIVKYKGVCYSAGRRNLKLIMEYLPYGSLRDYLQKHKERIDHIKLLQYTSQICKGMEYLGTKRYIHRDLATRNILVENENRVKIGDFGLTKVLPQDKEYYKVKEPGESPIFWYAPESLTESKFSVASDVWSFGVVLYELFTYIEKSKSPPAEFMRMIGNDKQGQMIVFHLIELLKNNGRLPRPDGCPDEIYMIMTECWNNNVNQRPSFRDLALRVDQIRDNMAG
Non-receptor tyrosine-protein kinase TYK2, sequence (P29597 whole entry): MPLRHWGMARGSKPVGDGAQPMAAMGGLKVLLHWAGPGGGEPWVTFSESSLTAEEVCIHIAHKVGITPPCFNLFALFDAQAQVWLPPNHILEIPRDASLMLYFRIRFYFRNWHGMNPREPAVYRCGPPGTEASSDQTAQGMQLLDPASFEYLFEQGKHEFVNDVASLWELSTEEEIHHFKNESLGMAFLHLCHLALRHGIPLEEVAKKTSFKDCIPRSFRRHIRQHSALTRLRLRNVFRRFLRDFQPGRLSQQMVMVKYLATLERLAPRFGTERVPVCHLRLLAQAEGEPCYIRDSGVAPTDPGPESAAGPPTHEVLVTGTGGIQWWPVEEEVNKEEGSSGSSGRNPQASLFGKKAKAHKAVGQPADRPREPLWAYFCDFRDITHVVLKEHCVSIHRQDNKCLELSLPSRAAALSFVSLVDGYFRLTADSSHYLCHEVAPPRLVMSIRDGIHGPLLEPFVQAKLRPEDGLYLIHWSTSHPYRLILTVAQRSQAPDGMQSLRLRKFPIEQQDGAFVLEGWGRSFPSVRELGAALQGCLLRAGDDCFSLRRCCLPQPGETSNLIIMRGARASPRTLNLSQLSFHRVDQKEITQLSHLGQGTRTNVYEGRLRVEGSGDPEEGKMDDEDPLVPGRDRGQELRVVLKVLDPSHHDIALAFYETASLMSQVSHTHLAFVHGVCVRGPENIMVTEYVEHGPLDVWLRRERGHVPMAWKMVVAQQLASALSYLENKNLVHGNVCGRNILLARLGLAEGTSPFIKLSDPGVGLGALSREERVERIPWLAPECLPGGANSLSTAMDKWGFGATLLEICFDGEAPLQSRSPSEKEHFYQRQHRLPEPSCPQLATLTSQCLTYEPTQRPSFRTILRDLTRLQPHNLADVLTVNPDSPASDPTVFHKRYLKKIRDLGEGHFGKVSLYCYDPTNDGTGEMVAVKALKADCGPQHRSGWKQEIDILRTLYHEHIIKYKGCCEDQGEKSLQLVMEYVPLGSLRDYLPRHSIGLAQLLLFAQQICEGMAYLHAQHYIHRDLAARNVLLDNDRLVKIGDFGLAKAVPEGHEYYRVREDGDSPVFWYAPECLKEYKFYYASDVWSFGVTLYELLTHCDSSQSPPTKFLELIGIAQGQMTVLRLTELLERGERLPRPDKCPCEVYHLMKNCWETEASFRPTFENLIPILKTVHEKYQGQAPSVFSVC
Receptor-type tyrosine-protein kinase FLT3 (Homo sapiens), sequence (P36888 whole entry): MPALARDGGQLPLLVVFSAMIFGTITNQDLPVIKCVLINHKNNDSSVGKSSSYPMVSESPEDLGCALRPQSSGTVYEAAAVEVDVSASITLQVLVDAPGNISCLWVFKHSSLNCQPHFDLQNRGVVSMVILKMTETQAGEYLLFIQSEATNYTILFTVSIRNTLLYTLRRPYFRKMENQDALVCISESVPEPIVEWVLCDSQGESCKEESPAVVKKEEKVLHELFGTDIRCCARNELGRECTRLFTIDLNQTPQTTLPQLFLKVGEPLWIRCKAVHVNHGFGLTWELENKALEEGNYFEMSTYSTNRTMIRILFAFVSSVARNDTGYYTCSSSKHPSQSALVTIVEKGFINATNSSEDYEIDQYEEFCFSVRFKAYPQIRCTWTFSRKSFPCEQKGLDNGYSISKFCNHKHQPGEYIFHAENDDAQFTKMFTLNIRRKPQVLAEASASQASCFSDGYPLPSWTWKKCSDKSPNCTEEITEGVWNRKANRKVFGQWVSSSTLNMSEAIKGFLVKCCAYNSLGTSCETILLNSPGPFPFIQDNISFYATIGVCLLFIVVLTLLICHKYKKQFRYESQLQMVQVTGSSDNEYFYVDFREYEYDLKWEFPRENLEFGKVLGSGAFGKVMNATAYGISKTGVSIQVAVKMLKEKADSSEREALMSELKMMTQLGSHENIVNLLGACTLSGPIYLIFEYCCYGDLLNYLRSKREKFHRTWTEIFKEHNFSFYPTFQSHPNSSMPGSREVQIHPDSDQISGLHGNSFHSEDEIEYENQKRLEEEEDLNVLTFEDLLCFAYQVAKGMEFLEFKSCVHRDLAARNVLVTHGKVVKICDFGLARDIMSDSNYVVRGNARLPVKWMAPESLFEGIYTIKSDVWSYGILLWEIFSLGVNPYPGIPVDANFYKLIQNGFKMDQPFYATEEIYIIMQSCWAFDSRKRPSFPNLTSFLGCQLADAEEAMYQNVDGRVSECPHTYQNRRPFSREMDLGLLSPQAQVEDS

With `Cl.Cn1cc(-c2ccnc(Nc3cccc(N)c3)n2)c2ccccc21`, the inhibition entry in the data set on RAW264.7 [1] and in the data set with RAW264.7 [18] was “Active” throughout. The result with Mus musculus [2], in the data set on Mus musculus [9] and in the data set with Mus musculus [11] was Active. Further, the IC50 is 27.3 nM in data set [3], 91.2 nM with RAW264.7 [8], 173 nM in data set [13] and 5.25 nM in data set [16]. The inhibition entry with HBE [4] is “Dose-dependent-effect”; in data set [7], 103%; in the data set with HBE [14] it was “Dose-dependent-effect”; in the data set on HBE [17], “Dose-dependent-effect”. In addition, the inhibition result in the data set with RAW264.7 [5] was “inactive”. The inhibition at 5 µM in data set [6] was 85%; in data set [15], 83%. For the same compound, in data set [10], the AUC(0-inf) was 680 ng·h/mL. In addition, the half-life in [12] was 8.29 h.
As to `Cc1ccc(Nc2nccc(-c3cn(C)c4ccccc34)n2)cc1N.Cl`, the inhibition entry with RAW264.7 [1] and with RAW264.7 [18] was “Active” in each case. In addition, the result in the data set on Mus musculus [2], in the data set with Mus musculus [9] and with Mus musculus [11] was Active. The values for the inhibition at 5 µM in data set [6] and in data set [15] were 76% and 69%, respectively. Moreover, in the data set with RAW264.7 [8], the IC50 is 480 nM. The compound also had an AUC(0-inf) in [10] of 1690 ng·h/mL. In data set [12], the half-life is 5.06 h. Moreover, the inhibition entry in the data set on HBE [17] is “Dose-dependent-effect”.
